Test results from patent US8044211B2 (Chroma Therapeutics Ltd., priority 2006, dated 2011).

target: T1, p38 MAP Kinase a (Homo sapiens, UniProt Q16539); test: p38 MAP Kinase activity, radiometric filter-binding assay (Upstate); type: biochemical; conditions: IC50 range; ATP at or close to Km; read-out: Inhibitor activity versus p38 MAPKa
T1 construct: purchased Upstate (Dundee UK)
Description: The ability of compounds to inhibit p38 MAP a Kinase activity was measured in an assay performed by Upstate (Dundee UK). In a final reaction volume of 25 μL, p38 MAP Kinase a (5-10 mU) is incubated with 25 mM Tris pH 7.5, 0.002 mMEGTA, 0.33 mg/mL myelin basic protein, 10 mM MgAcetate and [g-33P-ATP] (specific activity approx. 500 cpm/pmol, concentration as required). The reaction is initiated by the addition of the MgATP mix. After incubation for 40 minutes at room temperature, the reaction is stopped by the addition of 5 μL of a 3% phosphoric acid solution. 10 μL of the reaction is then spotted onto a P30 filtermat and washed three times for 5 minutes in 75 mM phosphoric acid and once in methanol prior to drying and scintillation counting.
Duplicate data points are generated from a ⅓ log dilution series of a stock solution in DMSO. Nine dilutions steps are made from a top concentration of 10 μM, and a ‘no compound’ blank is included. The standard radiometric filter-binding assay is performed at an ATP concentration at, or close to, the Km. Data from scintillation counts are collected and subjected to free-fit analysis by Prism software. From the curve generated, the concentration giving 50% inhibition is determined and reported.

T1 sequence (Q16539 whole entry): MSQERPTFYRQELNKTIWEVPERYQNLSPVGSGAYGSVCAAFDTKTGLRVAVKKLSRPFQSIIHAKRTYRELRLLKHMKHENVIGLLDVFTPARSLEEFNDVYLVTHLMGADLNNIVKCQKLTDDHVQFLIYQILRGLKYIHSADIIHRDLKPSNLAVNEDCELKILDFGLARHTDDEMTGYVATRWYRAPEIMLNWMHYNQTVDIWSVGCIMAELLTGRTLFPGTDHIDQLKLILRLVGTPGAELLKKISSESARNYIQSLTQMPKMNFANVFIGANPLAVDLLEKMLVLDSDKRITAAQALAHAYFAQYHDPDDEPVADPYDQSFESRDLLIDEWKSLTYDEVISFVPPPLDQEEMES

Row | IC50 [nM] | SMILES
1 | < 100 | Nc1c(C(=O)c2ccc(F)cc2F)ccc(=O)n1-c1c(F)cc(OCCCN[C@H](C(=O)O)c2ccccc2)cc1F [Example 95, (S)-(3-{4-[6-Amino-5-(2,4-difluorobenzoyl)-2-oxo-2H-pyridin-1-yl]-3,5-difluorophenoxy}propylamino)phenyl acetic acid]
2 | < 100 | CC(C)C[C@H](NCCCOc1cc(F)c(-n2c(N)c(C(=O)c3ccc(F)cc3)ccc2=O)c(F)c1)C(=O)O [Example 91]
3 | 100 to 1000 | Cc1cc(C(=O)c2ccc(=O)n(-c3ccc(CN[C@@H](CC(C)C)C(=O)O)cc3)c2N)ccc1F [Example 81, (S)-2-{4-[6-Amino-5-(3-Methyl-4-fluorobenzoyl)-2-oxo-2H-pyridin-1-yl]benzylamino}-4-methylpentanoic acid]
4 | < 100 | Cc1cc(C(=O)c2ccc(=O)n(-c3c(F)cc(OCCCN[C@@H](Cc4ccccc4)C(=O)O)cc3F)c2N)ccc1F [Example 93, (S)-2-(3-{4-[6-Amino-5-(4-fluoro-3-methylbenzoyl)-2-oxo-2H-pyridin-1-yl]-3,5-difluorophenoxy}propylamino)-3-phenylpropionic acid]
5 | < 100 | Cc1cc(C(=O)c2ccc(=O)n(-c3ccc(CN[C@@H](Cc4ccccc4)C(=O)O)cc3)c2N)ccc1F [Example 80, (S)-2-{4-[6-Amino-5-(3-methyl-4-fluorobenzoyl)-2-oxo-2H-pyridin-1-yl]benzylamino}-3-phenylpropionic acid]
6 | < 100 | Cc1cc(C(=O)c2ccc(=O)n(-c3ccc(OCCCN[C@@H](CC(C)C)C(=O)O)cc3)c2N)ccc1F [Example 88, (S)-2-(3-{4-[6-Amino-5-(4-fluoro-3-methylbenzoyl)-2-oxo-2H-pyridin-1-yl]phenoxy}propylamino)-4-methylpentanoic acid]
7 | > 1000 | Nc1c(C(=O)c2ccc(F)cc2F)ccc(=O)n1-c1ccc(OCCCN[C@@H](Cc2ccccc2)C(=O)O)cc1 [Example 86, (S)-2-(3-{4-[6-Amino-5-(2,4-difluorobenzoyl)-2-oxo-2H-pyridin-1-yl]phenoxy}propylamino)-3-phenyl propionic acid]
8 | < 100 | CC(C)C[C@H](NCCCOc1cc(F)c(-n2c(N)c(C(=O)c3ccc(F)cc3F)ccc2=O)c(F)c1)C(=O)O [Example 97, (S)-2-(3-{4-[6-Amino-5-(2,4-difluorobenzoyl)-2-oxo-2H-pyridin-1-yl]-3,5-difluorophenoxy}propylamino)-4-methyl pentanoic acid]
9 | 100 to 1000 | Nc1c(C(=O)c2ccc(F)cc2)ccc(=O)n1C1CCC(N[C@@H](Cc2ccccc2)C(=O)O)CC1 (stereo partly drawn) [Example 105, (S)-2-{4-[6-Amino-5-(4-fluorobenzoyl)-2-oxo-2H-pyridin-1-yl]cyclohexylamino}-3-phenylpropionic acid]
10 | < 100 | CC(C)C[C@H](NCCCOc1ccc(-n2c(N)c(C(=O)c3ccc(F)cc3)ccc2=O)cc1)C(=O)O [Example 85, (S)-2-(3-{4-[6-Amino-5-(4-fluorobenzoyl)-2-oxo-2H-pyridin-1-yl]phenoxy}propylamino)-4-methylpentanoic acid]
11 | < 100 | CC(C)C[C@H](NCc1cc(F)c(-n2c(N)c(C(=O)c3ccc(F)cc3F)ccc2=O)c(F)c1)C(=O)O [Example 101]
12 | 100 to 1000 | Cc1cc(C(=O)c2ccc(=O)n(-c3ccc(OCCCN[C@H](C(=O)O)c4ccccc4)cc3)c2N)ccc1F [Example 87]
13 | < 100 | CC(C)C[C@@H](NCCCOc1cc(F)c(-n2c(N)c(C(=O)c3ccc(F)cc3F)ccc2=O)c(F)c1)C(=O)O [Example 108, N-(3-{4-[6-amino-5-(2,4-difluorobenzoyl)-2-oxopyridin-1(2H)-yl]-3,5-difluorophenoxy}propyl)-D-leucine]
14 | < 100 | Nc1c(C(=O)c2ccc(F)cc2)ccc(=O)n1-c1ccc(OCCCN[C@@H](Cc2ccccc2)C(=O)O)cc1 [Example 82]
15 | < 100 | Nc1c(C(=O)c2ccc(F)cc2)ccc(=O)n1-c1c(F)cc(CN[C@@H](Cc2ccccc2)C(=O)O)cc1F [Example 92]
16 | 100 to 1000 | CC(C)C[C@H](NCCc1ccc(-n2c(N)c(C(=O)c3ccc(F)cc3)ccc2=O)cc1)C(=O)O [Example 111, N-[2-(4-{6-amino-5-[(4-fluorophenyl)carbonyl]-2-oxopyridin-1 (2H)-yl}phenyl)ethyl]-L-leucine]
17 | 100 to 1000 | Nc1c(C(=O)c2ccc(F)cc2)ccc(=O)n1-c1ccc(CN[C@@H](Cc2ccccc2)C(=O)O)cc1 [Example 78, (S)-2-{4-[6-Amino-5-(4-fluorobenzoyl)-2-oxo-2H-pyridin-1-yl]benzylamino}-3-phenylpropionic acid]
18 | < 100 | Nc1c(C(=O)c2ccc(F)cc2)ccc(=O)n1-c1c(F)cc(OC2CCC(N[C@H](C(=O)O)c3ccccc3)CC2)cc1F (stereo partly drawn) [Example 103, (2S)-[(4-{4-[6-amino-5-(4-fluorobenzoyl)-2-oxopyridin-1(2H)-yl]-3,5-difluorophenoxy}cyclohexyl)amino](phenyl)acetic acid]
19 | < 100 | Nc1c(C(=O)c2ccc(F)cc2)ccc(=O)n1-c1ccc(OCCCN[C@H](C(=O)O)c2ccccc2)cc1 [Example 94, (S)-(3-{4-[6-Amino-5-(4-fluorobenzoyl)-2-oxo-2H-pyridin-1-yl]-Phenoxy}propylamino)phenylacetic acid]
20 | 100 to 1000 | Cc1cc(C(=O)c2ccc(=O)n(-c3ccc(CN[C@H](C(=O)O)c4ccccc4)cc3)c2N)ccc1F [Example 76, (S)-{4-[6-Amino-5-(3-methyl-4-fluorobenzoyl)-2-oxo-2H-pyridin-1-yl]benzylamino}phenylacetic acid]
21 | < 100 | Nc1c(C(=O)c2ccc(F)cc2F)ccc(=O)n1-c1ccc(CN[C@H](C(=O)O)c2ccccc2)cc1 [Example 72, (S)-{4-[6-Amino-5-(2,4-difluorobenzoyl)-2-oxo-2H-pyridin-1-yl]benzylamino}phenylacetic acid]
22 | < 100 | Nc1c(C(=O)c2ccc(F)cc2F)ccc(=O)n1-c1c(F)cc(OCCCN[C@@H](C(=O)O)c2ccccc2)cc1F [Example 106, (R)-(3-{4-[6-Amino-5-(2,4-difluorobenzoyl)-2-oxo-2H-pyridin-1-yl]-3,5-difluorophenoxy}propylamino)phenyl acetic acid]
23 | < 100 | Cc1cc(C(=O)c2ccc(=O)n(-c3c(F)cc(OCCCN[C@H](C(=O)O)c4ccccc4)cc3F)c2N)ccc1F [Example 99, (S)-(3-{4-[6-Amino-5-(4-fluoro-3-methylbenzoyl)-2-oxo-2H-pyridin-1-yl]-3,5-difluorophenoxy}propylamino)phenylacetic acid]
24 | 100 to 1000 | Nc1c(C(=O)c2ccc(F)cc2)ccc(=O)n1-c1ccc(CN[C@H](C(=O)O)c2ccccc2)cc1 [Example 75, (S)-{4-[6-Amino-5-(4-fluorobenzoyl)-2-oxo-2H-pyridin-1-yl]benzylamino}phenylacetic acid]
25 | < 100 | CC(C)C[C@H](NCc1ccc(-n2c(N)c(C(=O)c3ccc(F)cc3F)ccc2=O)cc1)C(=O)O [Example 74, (S)-2-{4-[6-Amino-5-(2,4-difluorobenzoyl)-2-oxo-2H-pyridin-1-yl]benzylamino}-4-methylpentanoic acid]
26 | 100 to 1000 | CC(C)C[C@H](NCc1ccc(-n2c(N)c(C(=O)c3ccc(F)cc3)ccc2=O)cc1)C(=O)O [Example 79, (S)-2-{4-[6-Amino-5-(4-fluorobenzoyl)-2-oxo-2H-pyridin-1-yl]benzylamino}-4-methylpentanoic acid]
